The text below walks through data of patent US20150141324A1 (priority 2011, published 2015).

Peptide text beside a SMILES is read from it. * marks the point of attachment. NH(4-amidinobenzyl) = N=C(N)c1ccc(CN*)cc1; Decanoyl = CCCCCCCCCC(=O)*; X2 = N=C(N)NC/C=C/CN*; CH2Cl = ClC* Some results are limits rather than exact numbers.

Experiment [1] concerns Escherichia coli O157:H7 Shiga toxin.
The target in the next experiment is T1, furin (Homo sapiens, UniProt P09958).
T1 construct: endogenous in cells; host or cells: HEK293
The class given is cell-based.

T1 sequence (P09958 108-794): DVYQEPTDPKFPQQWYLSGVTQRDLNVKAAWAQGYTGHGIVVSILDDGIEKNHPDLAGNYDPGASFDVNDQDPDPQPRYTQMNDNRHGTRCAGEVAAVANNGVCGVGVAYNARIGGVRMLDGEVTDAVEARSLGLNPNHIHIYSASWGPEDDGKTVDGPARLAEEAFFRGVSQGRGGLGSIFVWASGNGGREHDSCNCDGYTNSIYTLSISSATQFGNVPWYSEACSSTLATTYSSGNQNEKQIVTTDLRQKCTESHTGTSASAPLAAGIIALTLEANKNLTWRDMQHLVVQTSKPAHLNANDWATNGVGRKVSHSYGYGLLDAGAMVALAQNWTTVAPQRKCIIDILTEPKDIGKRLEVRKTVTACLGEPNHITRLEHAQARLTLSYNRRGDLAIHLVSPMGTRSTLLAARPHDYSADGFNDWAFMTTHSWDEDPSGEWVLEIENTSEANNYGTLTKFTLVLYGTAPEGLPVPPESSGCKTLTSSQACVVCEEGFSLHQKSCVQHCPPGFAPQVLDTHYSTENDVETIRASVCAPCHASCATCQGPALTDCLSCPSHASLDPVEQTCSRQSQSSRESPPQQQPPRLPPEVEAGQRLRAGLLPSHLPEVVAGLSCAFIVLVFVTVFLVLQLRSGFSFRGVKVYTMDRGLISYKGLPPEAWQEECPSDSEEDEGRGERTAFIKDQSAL

On to `CC(=O)N[C@@H](CCCNC(=N)N)C(=O)N[C@@H](C)C(=O)N[C@@H](CCCNC(=N)N)C(=O)N[C@@H](CCCNC(=N)N)C(=O)N[C@@H](CCCNC(=N)N)C(=O)N[C@@H](CCCCN)C(=O)N[C@@H](CCCCN)C(=O)NN(CCCNC(=N)N)CC(=O)N[C@H](C(N)=O)[C@@H](C)O` [RxxT[Azaβ3R]^P1], for which, in experiment [1], the midpoint of inhibition, the IC50, lay at 314 µM and the “IC50 described in words” value is on record as “low IC50 values”. Besides, on furin, the “potency against furin in cell fusion inhibition, compared to RxxT control peptide” value was “increased potency”.

`C[C@H](NC(=O)[C@H](CCCNC(=N)N)NC(=O)CCCCCCCN)C(=O)N[C@@H](CCCNC(=N)N)C(=O)N[C@@H](CCCNC(=N)N)C(=O)N[C@@H](CCCNC(=N)N)C(=O)N[C@@H](CCCCN)C(=O)N[C@@H](CCCCN)C(=O)NN(CCCNC(=N)N)CC(=O)N[C@H](C(N)=O)[C@@H](C)O` [Aoc-RxxT[Azaβ3R]^P1]: in experiment [1], half-maximal inhibition (IC50) was put at 16.7 µM and the “IC50 described in words” value was “similar”. In addition, at furin, the “potency against furin in cell fusion inhibition, compared to RxxT control peptide” value is reported as “increased potency”.

As for `CC(=O)N[C@@H](CCCNC(=N)N)C(=O)N[C@@H](C)C(=O)N[C@@H](CCCNC(=N)N)C(=O)N[C@@H](CCCNC(=N)N)C(=O)N[C@@H](CCCNC(=N)N)C(=O)N[C@@H](CCCCN)C(=O)N[C@@H](CCCCN)C(=O)N[C@@H](CCCNC(=N)N)C(=O)N[C@H](C(N)=O)[C@@H](C)O` [RxxT, Ac-R-A-R-R-R-K-K-R-T-NH2, reference compound], the half-inhibitory concentration (IC50) (in general, the concentration that inhibits the measured activity by half) in experiment [1] was more than 1000 µM.

Turning to `CC(=O)NN(CCCNC(=N)N)CC(=O)N[C@@H](C)C(=O)N[C@@H](CCCNC(=N)N)C(=O)N[C@@H](CCCNC(=N)N)C(=O)N[C@@H](CCCNC(=N)N)C(=O)N[C@@H](CCCCN)C(=O)N[C@@H](CCCCN)C(=O)NN(CCCNC(=N)N)CC(=O)N[C@H](C(N)=O)[C@@H](C)O` [RxxT[Azaβ3R]^P1-P8], in experiment [1], the concentration for half-maximal inhibition (IC50) came to 20.8 µM and the “IC50 described in words” value is recorded as “similar”. In addition, on furin, the “potency against furin in cell fusion inhibition, compared to RxxT control peptide” value is “increased potency”.

The compound `CCCCCCCCCC(=O)N[C@@H](CCCNC(=N)N)C(=O)N[C@H](C(=O)N[C@@H](CCCCN)C(=O)N[C@@H](CCCNC(=N)N)C(=O)CCl)[C@@H](C)O` [DEC-RTKR-CMK, reference compound] (Decanoyl-RTKR-CH2Cl) gave a 50% inhibitory concentration (IC50) in experiment [1] of 11.5 µM.

Take `CC(=O)N[C@@H](CCCNC(=N)N)C(=O)N[C@@H](C)C(=O)N[C@@H](CCCNC(=N)N)C(=O)N[C@@H](CCCNC(=N)N)C(=O)N[C@@H](CCCNC(=N)N)C(=O)N[C@@H](CCCCN)C(=O)N[C@@H](CCCCN)C(=O)NC/C=C/CNC(=N)N` [Rxx[ΔAR-CO2]^P1] (Ac-RARRRKK-X2; N-terminus and C-terminus assumed): in experiment [1], the half-inhibitory concentration (IC50) came to 71 µM and the “IC50 described in words” value is “low IC50 values”. On furin, the “potency against furin in cell fusion inhibition, compared to RxxT control peptide” value is “increased potency”.

In the case of `CC(=O)N[C@@H](CCCNC(=N)N)C(=O)N[C@@H](C)C(=O)N[C@@H](CCCNC(=N)N)C(=O)N[C@@H](CCCNC(=N)N)C(=O)N[C@@H](CCCNC(=N)N)C(=O)N[C@@H](CCCCN)C(=O)N[C@@H](CCCCN)C(=O)NCc1ccc(C(=N)N)cc1` [Rxx[AMBA]^P1] (Ac-RARRRKK-{NH(4-amidinobenzyl)}), the half-inhibitory concentration (IC50) in experiment [1] was more than 1000 µM.
